Values of other authors as cited in patent publication US6767992B1 (PTC Pharma AG, priority 2001, dated 2004).

Tested on: RPMI 8322 melanoma cells

## L-prolyl-L-m-sarcolysyl-L-p-fluorophenylalanine [PSF]
Relative to m-sarcolysine
  times more toxic than m-sarcolysine: 28 times
Relative to melphalan
  times more toxic than melphalan: 35 times
